Results from ChEMBL document CHEMBL1157187, “Chemical synthesis of 2beta-amino-5alpha-androstane-3alpha,17beta-diol N-derivatives and their antiproliferative effect on HL-60 human leukemia cells” (Bioorg Med Chem, 2008).

Assays:
[1] = test system: HL-60; experiment: Growth inhibition of human HL60 cells at 1 uM after 3 days; format: functional; settings: HL-60, 72 h
[2] = test system: HL-60; experiment: Growth inhibition of human HL60 cells at 10 uM after 3 days; format: functional; settings: HL-60, 72 h

SMILES	inhibition at 1 µM [1] [%]	inhibition at 10 µM [2] [%]
CC(C)C(=O)N1CCN([C@H]2C[C@@]3(C)[C@@H](CC[C@@H]4[C@@H]3CC[C@]3(C)[C@@H](O)CC[C@@H]43)C[C@@H]2O)CC1	0	1.1
C[C@]12C[C@H](N3CCCC3)[C@@H](O)C[C@@H]1CC[C@@H]1[C@@H]2CC[C@]2(C)[C@@H](O)CC[C@@H]12	0	9.9
CCCCCCCCC(=O)N1CCN([C@H]2C[C@@]3(C)[C@@H](CC[C@@H]4[C@@H]3CC[C@]3(C)[C@@H](O)CC[C@@H]43)C[C@@H]2O)CC1	8.1	99
C[C@]12C[C@H](N3CCN(C(=O)C4CCCCC4)CC3)[C@@H](O)C[C@@H]1CC[C@@H]1[C@@H]2CC[C@]2(C)[C@@H](O)CC[C@@H]12	0	3.9
CCCCCCN[C@H]1C[C@@]2(C)[C@@H](CC[C@@H]3[C@@H]2CC[C@]2(C)[C@@H](O)CC[C@@H]32)C[C@@H]1O	0	6.9
C[C@]12C[C@H](NC3CCCCC3)[C@@H](O)C[C@@H]1CC[C@@H]1[C@@H]2CC[C@]2(C)[C@@H](O)CC[C@@H]12	0	0
CCCCCN1CCN([C@H]2C[C@@]3(C)[C@@H](CC[C@@H]4[C@@H]3CC[C@]3(C)[C@@H](O)CC[C@@H]43)C[C@@H]2O)CC1	0	7.7
C[C@]12C[C@H](N3CCCCCC3)[C@@H](O)C[C@@H]1CC[C@@H]1[C@@H]2CC[C@]2(C)[C@@H](O)CC[C@@H]12	0	3.4
CC(C)CCN[C@H]1C[C@@]2(C)[C@@H](CC[C@@H]3[C@@H]2CC[C@]2(C)[C@@H](O)CC[C@@H]32)C[C@@H]1O	0	3
CCCCCCCN[C@H]1C[C@@]2(C)[C@@H](CC[C@@H]3[C@@H]2CC[C@]2(C)[C@@H](O)CC[C@@H]32)C[C@@H]1O	10.1	82.3
C[C@]12C[C@H](N3CCC(N4CCCCC4)CC3)[C@@H](O)C[C@@H]1CC[C@@H]1[C@@H]2CC[C@]2(C)[C@@H](O)CC[C@@H]12	0	77.8
CCCCCCCCCCCN[C@H]1C[C@@]2(C)[C@@H](CC[C@@H]3[C@@H]2CC[C@]2(C)[C@@H](O)CC[C@@H]32)C[C@@H]1O	0	96.3
CN1CCN([C@H]2C[C@@]3(C)[C@@H](CC[C@@H]4[C@@H]3CC[C@]3(C)[C@@H](O)CC[C@@H]43)C[C@@H]2O)CC1	0	16.2
CCCCCCCCCCN[C@H]1C[C@@]2(C)[C@@H](CC[C@@H]3[C@@H]2CC[C@]2(C)[C@@H](O)CC[C@@H]32)C[C@@H]1O	0	96.9
C[C@]12C[C@H](N3CCN(c4ccccn4)CC3)[C@@H](O)C[C@@H]1CC[C@@H]1[C@@H]2CC[C@]2(C)[C@@H](O)CC[C@@H]12	0	26.1
C[C@]12C[C@H](N3CCN(CC4CCCCC4)CC3)[C@@H](O)C[C@@H]1CC[C@@H]1[C@@H]2CC[C@]2(C)[C@@H](O)CC[C@@H]12	0	4
C[C@]12C[C@H](NCCc3ccccc3)[C@@H](O)C[C@@H]1CC[C@@H]1[C@@H]2CC[C@]2(C)[C@@H](O)CC[C@@H]12	9.5	42.8
CCCN[C@H]1C[C@@]2(C)[C@@H](CC[C@@H]3[C@@H]2CC[C@]2(C)[C@@H](O)CC[C@@H]32)C[C@@H]1O	0	0.4
CCN1CCN([C@H]2C[C@@]3(C)[C@@H](CC[C@@H]4[C@@H]3CC[C@]3(C)[C@@H](O)CC[C@@H]43)C[C@@H]2O)CC1	0	4.8
C[C@]12C[C@H](N3CCN(C(=O)c4ccccc4)CC3)[C@@H](O)C[C@@H]1CC[C@@H]1[C@@H]2CC[C@]2(C)[C@@H](O)CC[C@@H]12	0	11.4
CCCN1CCN([C@H]2C[C@@]3(C)[C@@H](CC[C@@H]4[C@@H]3CC[C@]3(C)[C@@H](O)CC[C@@H]43)C[C@@H]2O)CC1	0	0
CCN(CC)[C@H]1C[C@@]2(C)[C@@H](CC[C@@H]3[C@@H]2CC[C@]2(C)[C@@H](O)CC[C@@H]32)C[C@@H]1O	0	6.7
C[C@]12C[C@H](N3CCOCC3)[C@@H](O)C[C@@H]1CC[C@@H]1[C@@H]2CC[C@]2(C)[C@@H](O)CC[C@@H]12	14.9	8.7

SMILES	inhibition at 1 µM [1] [%]	inhibition at 10 µM [2] [%]
CCOCCCN[C@H]1C[C@@]2(C)[C@@H](CC[C@@H]3[C@@H]2CC[C@]2(C)[C@@H](O)CC[C@@H]32)C[C@@H]1O	0	10.8
C[C@]12C[C@H](N3CCCNCC3)[C@@H](O)C[C@@H]1CC[C@@H]1[C@@H]2CC[C@]2(C)[C@@H](O)CC[C@@H]12	1	21.4
C[C@]12C[C@H](NC3CCCC3)[C@@H](O)C[C@@H]1CC[C@@H]1[C@@H]2CC[C@]2(C)[C@@H](O)CC[C@@H]12	0	0
C[C@]12C[C@H](n3cccn3)[C@@H](O)C[C@@H]1CC[C@@H]1[C@@H]2CC[C@]2(C)[C@@H](O)CC[C@@H]12	8.4	12.8
CC(C)CN1CCN([C@H]2C[C@@]3(C)[C@@H](CC[C@@H]4[C@@H]3CC[C@]3(C)[C@@H](O)CC[C@@H]43)C[C@@H]2O)CC1	0	5
CCCCCCCCCN[C@H]1C[C@@]2(C)[C@@H](CC[C@@H]3[C@@H]2CC[C@]2(C)[C@@H](O)CC[C@@H]32)C[C@@H]1O	3.9	89.9
C[C@]12C[C@H](NCCCc3ccccc3)[C@@H](O)C[C@@H]1CC[C@@H]1[C@@H]2CC[C@]2(C)[C@@H](O)CC[C@@H]12	0.9	37.6
C[C@]12C[C@H](N3CCN(CCO)CC3)[C@@H](O)C[C@@H]1CC[C@@H]1[C@@H]2CC[C@]2(C)[C@@H](O)CC[C@@H]12	0.8	17.7
CC(=O)N1CCN([C@H]2C[C@@]3(C)[C@@H](CC[C@@H]4[C@@H]3CC[C@]3(C)[C@@H](O)CC[C@@H]43)C[C@@H]2O)CC1	0	0
CCCCN1CCN([C@H]2C[C@@]3(C)[C@@H](CC[C@@H]4[C@@H]3CC[C@]3(C)[C@@H](O)CC[C@@H]43)C[C@@H]2O)CC1	0	7.6
CCCCCCCCCCCCCCCCN[C@H]1C[C@@]2(C)[C@@H](CC[C@@H]3[C@@H]2CC[C@]2(C)[C@@H](O)CC[C@@H]32)C[C@@H]1O	0	94.8
CCCCC(=O)N1CCN([C@H]2C[C@@]3(C)[C@@H](CC[C@@H]4[C@@H]3CC[C@]3(C)[C@@H](O)CC[C@@H]43)C[C@@H]2O)CC1	0	7.4
CCCCCCCCCCCN(CCCCCCCCCCC)[C@H]1C[C@@]2(C)[C@@H](CC[C@@H]3[C@@H]2CC[C@]2(C)[C@@H](O)CC[C@@H]32)C[C@@H]1O	11.7	7
C[C@]12C[C@H](N3CCN(c4ccc([N+](=O)[O-])cc4)CC3)[C@@H](O)C[C@@H]1CC[C@@H]1[C@@H]2CC[C@]2(C)[C@@H](O)CC[C@@H]12	12.5	92.2
C[C@]12C[C@H](N3CCC(Cc4ccccc4)CC3)[C@@H](O)C[C@@H]1CC[C@@H]1[C@@H]2CC[C@]2(C)[C@@H](O)CC[C@@H]12	9.9	57.9
CC(C)CC(=O)N1CCN([C@H]2C[C@@]3(C)[C@@H](CC[C@@H]4[C@@H]3CC[C@]3(C)[C@@H](O)CC[C@@H]43)C[C@@H]2O)CC1	0	5.5
CCCCCCCCCN(CCCCCCCCC)[C@H]1C[C@@]2(C)[C@@H](CC[C@@H]3[C@@H]2CC[C@]2(C)[C@@H](O)CC[C@@H]32)C[C@@H]1O	9.8	41.5
C[C@]12C[C@H](N3CCNCC3)[C@@H](O)C[C@@H]1CC[C@@H]1[C@@H]2CC[C@]2(C)[C@@H](O)CC[C@@H]12	6.9	5.9
CCCC(=O)N1CCN([C@H]2C[C@@]3(C)[C@@H](CC[C@@H]4[C@@H]3CC[C@]3(C)[C@@H](O)CC[C@@H]43)C[C@@H]2O)CC1	0	4.6
C[C@]12C[C@H](N3CCCCC3)[C@@H](O)C[C@@H]1CC[C@@H]1[C@@H]2CC[C@]2(C)[C@@H](O)CC[C@@H]12	0	1.5
CCC(C)(C)N[C@H]1C[C@@]2(C)[C@@H](CC[C@@H]3[C@@H]2CC[C@]2(C)[C@@H](O)CC[C@@H]32)C[C@@H]1O	0	1.8
CCCCOCCCN[C@H]1C[C@@]2(C)[C@@H](CC[C@@H]3[C@@H]2CC[C@]2(C)[C@@H](O)CC[C@@H]32)C[C@@H]1O	4.8	26.5
CC(C)CN[C@H]1C[C@@]2(C)[C@@H](CC[C@@H]3[C@@H]2CC[C@]2(C)[C@@H](O)CC[C@@H]32)C[C@@H]1O	0	0
